Reference: publication PMC4992173, “Divergent synthesis and identification of the cellular targets of deoxyelephantopins” (Nature Communications, 2016)

Biological target: T1, Src substrate cortactin (CTTN) (Homo sapiens, UniProt Q14247)
T1 construct: endogenous in cells; host or cells: MCF7
Assay: In situ competitive profiling in live MCF7 cells (LFQ): CTTN
Type: cell-based
Conditions: protein CTTN, 4 h, then 10 µM 24c, n=4
Description: In our efforts to determine the direct molecular targets of deoxyelephantopin we first performed a gel-based competitive in situ proteomic profiling assay[41] […] While the greater conformational flexibility of probe 24c could potentially lead to more promiscuous target engagement relatively to deoxyelephantopin, it was favoured based on the fact that an alkyne moiety appended to the rigid scaffold of deoxyelephantopin may hinder some of its interactions. MCF7 cells were pretreated with various concentrations of deoxyelephantopin for 4 h, harvested, lysed and the lysates were treated with the fluorogenic probe 24c-Cy3 (10 μM; Supplementary Fig. 10). […] Furthermore, cells were pretreated with 20 μM concentration of deoxyelephantopin or 24c and the proteomic profiles were compared (Fig. 6b, Supplementary Fig. 11). Multiple bands were detected that were equally competed by both DEP and 24c, thus again confirming that 24c can be used as an acceptable clickable analogue of deoxyelephantopin in pulldown assays. Having established the optimal labelling conditions by SDS–PAGE, we next carried out a mass spectrometry-based competitive profiling assay[42] coupled with the method of stable isotope labelling of amino acids in culture (SILAC)[43]. […]
Figure 6 Proteome-wide identification of deoxyelephantopin targets. […] Quantification was performed using label-free quantification (LFQ) method (n=4). […]

T1 sequence (Q14247 whole entry): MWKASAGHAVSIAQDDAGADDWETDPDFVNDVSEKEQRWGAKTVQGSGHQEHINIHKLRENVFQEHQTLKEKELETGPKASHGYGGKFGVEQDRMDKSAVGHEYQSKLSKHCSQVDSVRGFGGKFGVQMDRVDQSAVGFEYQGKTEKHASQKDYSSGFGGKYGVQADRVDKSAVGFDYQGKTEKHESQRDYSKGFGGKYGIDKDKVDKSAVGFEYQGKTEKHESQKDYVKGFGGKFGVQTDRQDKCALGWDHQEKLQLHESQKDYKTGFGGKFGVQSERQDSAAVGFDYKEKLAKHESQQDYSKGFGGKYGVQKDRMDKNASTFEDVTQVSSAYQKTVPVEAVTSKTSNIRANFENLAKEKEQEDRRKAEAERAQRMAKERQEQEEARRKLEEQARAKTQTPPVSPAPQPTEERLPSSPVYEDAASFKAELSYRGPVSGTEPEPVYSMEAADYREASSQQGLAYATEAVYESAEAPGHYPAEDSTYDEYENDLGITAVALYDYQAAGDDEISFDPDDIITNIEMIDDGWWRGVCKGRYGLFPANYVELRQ

C=C(C)C(=O)O[C@H]1CC2=C[C@@H](C/C(C)=C/[C@H]3OC(=O)C(=C)[C@H]13)OC2=O [deoxyelephantopin]
LFQ ratio 20 µM Deoxyelephantopin/DMSO with 24c: 0.22
